Laboratory results: ChEMBL document CHEMBL3351633, “Anithiactins A-C, modified 2-phenylthiazoles from a mudflat-derived Streptomyces sp” (J Nat Prod, 2014)
The source made the active and inactive calls. No cut-off for these calls is given here.

Tests used:
Acetylcholinesterase = Acetylcholinesterase (Homo sapiens, UniProt P22303); assay: Inhibition of AChE (unknown origin) assessed as inhibition of acetylcholine hydrolysis preincubated for 15 mins by Ellman method
A498 = assay: Cytotoxicity against human A498 cells up to 200 uM by modified MTT assay; assay type: functional, cell-based
ACHN = assay: Cytotoxicity against human ACHN cells up to 200 uM by modified MTT assay; assay type: functional, cell-based

Sequence of Acetylcholinesterase (P22303 whole entry): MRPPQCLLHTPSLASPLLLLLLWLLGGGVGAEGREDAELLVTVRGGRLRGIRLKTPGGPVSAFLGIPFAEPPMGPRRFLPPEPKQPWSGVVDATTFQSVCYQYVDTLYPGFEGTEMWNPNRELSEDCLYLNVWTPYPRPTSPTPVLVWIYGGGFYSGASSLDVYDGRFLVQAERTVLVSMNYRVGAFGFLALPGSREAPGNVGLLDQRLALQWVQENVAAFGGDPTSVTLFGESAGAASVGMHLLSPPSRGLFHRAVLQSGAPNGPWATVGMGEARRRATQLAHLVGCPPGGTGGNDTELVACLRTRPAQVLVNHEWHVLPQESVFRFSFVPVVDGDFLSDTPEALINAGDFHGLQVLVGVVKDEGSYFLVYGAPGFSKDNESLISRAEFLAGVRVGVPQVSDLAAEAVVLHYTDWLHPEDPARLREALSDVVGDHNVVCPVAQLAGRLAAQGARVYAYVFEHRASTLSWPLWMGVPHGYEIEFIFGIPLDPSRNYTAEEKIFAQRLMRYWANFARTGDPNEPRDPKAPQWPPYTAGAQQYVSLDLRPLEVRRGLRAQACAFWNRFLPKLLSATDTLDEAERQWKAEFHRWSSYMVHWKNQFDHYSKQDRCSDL

Compound	IC50 (Acetylcholinesterase)	Activity (A498)	Activity (ACHN)
CNc1ccccc1-c1nc(C(N)=O)cs1	53 µM	inactive	inactive
CNc1ccccc1-c1nc(C(=O)O)cs1	68 µM	inactive	inactive
CNc1ccccc1-c1nc(C(=O)OC)cs1	63 µM	inactive	inactive
